From ChEMBL document CHEMBL4393656, “Cationic biaryl 1,2,3-triazolyl peptidomimetic amphiphiles targeting Clostridioides (Clostridium) difficile: Synthesis, antibacterial evaluation and an in vivo C. difficile infection model” (Eur J Med Chem, 2019)
Converted amounts (≈) assume the structure as drawn. The source made the active and inactive calls. The rule behind the calls is not given here.

Assays:
Clostridioides difficile [1] = experiment: Antibacterial activity against Clostridium difficile ribotype 027 M7404 spores infected in antibiotic cocktail-induced CDI C57BL/6J mouse model assessed as decrease in diarrhea at 100 mg/kg administered via oral gavage for every 12 hrs starting from 6 hrs post-infection and measured at 24 hrs post infection; assay type: functional, organism-based; conditions: genomovar ribotype 027 M7404
Clostridioides difficile [2] = experiment: Antibacterial activity against Clostridium difficile ribotype 027 M7404 spores infected in antibiotic cocktail-induced CDI C57BL/6J mouse model assessed as protection against bacterial infection at 100 mg/kg administered via oral gavage for every 12 hrs starting from 6 hrs post-infection and measured at 2 days post infection; assay type: functional, organism-based; conditions: genomovar ribotype 027 M7404
Clostridioides difficile [3] = experiment: Antibacterial activity against Clostridium difficile ribotype 027 M7404 spores infected in antibiotic cocktail-induced CDI C57BL/6J mouse model assessed as decrease in weight loss at 100 mg/kg administered via oral gavage for every 12 hrs starting from 6 hrs post-infection and measured at 24 hrs post infection; assay type: functional, organism-based; conditions: genomovar ribotype 027 M7404
Staphylococcus aureus [4] = experiment: Growth inhibition of Staphylococcus aureus ATCC 29213 incubated in MHB broth for 24 hrs; assay type: organism-based
Enterococcus faecalis = experiment: Growth inhibition of Enterococcus faecalis ATCC 29212 incubated in MHB broth for 24 hrs; assay type: organism-based
Streptococcus pneumoniae = experiment: Growth inhibition of Streptococcus pneumoniae ATCC 49619 incubated in MHB medium with lysed horse blood and 5% CO2 for 24 hrs; assay type: organism-based
Clostridioides difficile [5] = experiment: Antibacterial activity against Clostridium difficile ATCC 700057 incubated for 2 to 4 hrs in pre-reduced brucella broth supplemented with haemin/vitamin K and further incubation in anaerobic condition for 48 hrs; assay type: functional
Clostridioides difficile [6] = experiment: Antibacterial activity against Clostridium difficile NSW132 RT027 incubated for 2 to 4 hrs in pre-reduced brucella broth supplemented with haemin/vitamin K and further incubation in anaerobic condition for 48 hrs; assay type: functional
Escherichia coli [7] = experiment: Growth inhibition of Escherichia coli ATCC 25922 incubated for 18 hrs; assay type: organism-based
Klebsiella pneumoniae = experiment: Growth inhibition of Klebsiella pneumoniae ATCC 700603 incubated for 18 hrs; assay type: organism-based
Acinetobacter baumannii = experiment: Growth inhibition of Acinetobacter baumannii ATCC 19606 incubated for 18 hrs without shaking by absorbance based monochromator plate reader analysis; assay type: organism-based, ATCC 19606 = CIP 70.34 = JCM 6841; conditions: in vitro
Pseudomonas aeruginosa = experiment: Growth inhibition of Pseudomonas aeruginosa ATCC 27853 incubated for 18 hrs; assay type: organism-based
Staphylococcus aureus [8] = experiment: Growth inhibition of methicillin-resistant Staphylococcus aureus ATCC 43300 incubated for 18 hrs; assay type: organism-based
[9] = Cytotoxicity against HEK293 cells assessed as decrease in cell viability after 20 hrs by resazurin dye-based fluorescence assay; conditions: human
[10] = Haemolytic activity in sheep erythrocytes assessed as induction of haemolysis at 5 ug/ml incubated for 2 hrs relative to control; assay type: cell-based, Ovis aries, Erythrocyte; conditions: read-out: Activity
[11] = Haemolytic activity in sheep erythrocytes assessed as induction of haemolysis at 50 ug/ml incubated for 2 hrs relative to control; assay type: cell-based, Ovis aries, Erythrocyte; conditions: read-out: Activity
Clostridioides difficile [12] = experiment: Antibacterial activity against Clostridium difficile ribotype 027 M7404 spores infected in antibiotic cocktail-induced CDI C57BL/6J mouse model assessed as decrease in fecal spore load at 100 mg/kg administered via oral gavage for every 12 hrs starting from 6 hrs post-infection and measured at 24 hrs post infection by heat shock based plating method; assay type: functional, organism-based; conditions: genomovar ribotype 027 M7404
Staphylococcus aureus [13] = experiment: Induction of cytoplasmic membrane depolarization in Staphylococcus aureus ATCC 29213 at 32 ug/ml by DiSC3-5 dye based fluorescence method; assay type: organism-based
Escherichia coli [14] = experiment: Induction of cytoplasmic membrane depolarization in Escherichia coli NCTC 10418 at 64 ug/ml by DiSC3-5 dye based fluorescence method; assay type: organism-based
Staphylococcus aureus [15] = experiment: Induction of cytoplasmic membrane permeabilization in Staphylococcus aureus ATCC 29213 at 32 ug/ml by propidium iodide staining based fluorescence method relative to control
Escherichia coli [16] = experiment: Induction of cytoplasmic membrane permeabilization in Escherichia coli NCTC 10418 at 32 ug/ml by propidium iodide staining based fluorescence method; assay type: organism-based
Staphylococcus aureus [17] = experiment: Induction of cytoplasmic membrane permeabilization in Staphylococcus aureus ATCC 29213 at 32 ug/ml measured after 10 mins by propidium iodide staining based fluorescence method; assay type: organism-based
Staphylococcus aureus [18] = experiment: Growth inhibition of methicillin resistant Staphylococcus aureus NCTC 10442 incubated in MHB medium for 24 hrs; assay type: organism-based
Staphylococcus aureus [19] = experiment: Induction of cytoplasmic membrane depolarization in Staphylococcus aureus ATCC 29213 at 8 ug/ml by DiSC3-5 dye based fluorescence method; assay type: organism-based
Staphylococcus aureus [20] = experiment: Induction of cytoplasmic membrane permeabilization in Staphylococcus aureus ATCC 29213 at 8 ug/ml by propidium iodide staining based fluorescence method; assay type: organism-based
Clostridioides difficile [21] = experiment: Antibacterial activity against Clostridium difficile ribotype 027 M7404 spores infected in antibiotic cocktail-induced CDI C57BL/6J mouse model assessed as decrease in physiological appearance score at 100 mg/kg administered via oral gavage for every 12 hrs starting from 6 hrs post-infection and measured at 24 hrs post infection; assay type: functional, organism-based; conditions: genomovar ribotype 027 M7404
Escherichia coli [22] = experiment: Induction of cytoplasmic membrane depolarization in Escherichia coli NCTC 10418 at 4 ug/ml by DiSC3-5 dye based fluorescence method; assay type: organism-based
Escherichia coli [23] = experiment: Induction of cytoplasmic membrane permeabilization in Escherichia coli NCTC 10418 at 4 ug/ml by propidium iodide staining based fluorescence method; assay type: organism-based
Staphylococcus aureus [24] = experiment: Induction of cytoplasmic membrane permeabilization in Staphylococcus aureus ATCC 29213 at 32 ug/ml measured after 40 mins by propidium iodide staining based fluorescence method; assay type: organism-based

Compound | MIC (Staphylococcus aureus [4]) | MIC (Enterococcus faecalis) | MIC (Streptococcus pneumoniae) | MIC (Clostridioides difficile [5]) | MIC (Clostridioides difficile [6]) | MIC (Escherichia coli [7]) | MIC (Klebsiella pneumoniae) | MIC (Acinetobacter baumannii) | MIC (Pseudomonas aeruginosa) | MIC (Staphylococcus aureus [8]) | CC50 at 20 h [9] | MIC (Staphylococcus aureus [18]) | also measured
CC(C)CCOc1ccccc1-c1ccccc1OCc1cn([C@H](CCCNC(=N)N)C(=O)NC2CCCCC2)nn1.Cl | 4 µg/mL | 4 µg/mL | 4 µg/mL | 8 µg/mL | 16 µg/mL | > 32 µg/mL | > 32 µg/mL | 32 µg/mL | > 32 µg/mL | 4 µg/mL | 19.7 µg/mL | – | Activity (Clostridioides difficile [1]): Active; Activity (Clostridioides difficile [2]): inactive; Activity (Clostridioides difficile [3]): inactive; hemolysis at 2 h, 5 ug/ml [10]: 1.4%; hemolysis at 2 h, 50 ug/ml [11]: 81.8%; Activity (Clostridioides difficile [12]): Active; Activity (Staphylococcus aureus [13]): Active; Activity (Escherichia coli [14]): Active; Activity (Staphylococcus aureus [15]): >500%; Activity (Escherichia coli [16]): Active; Activity (Staphylococcus aureus [17]): Active
CC(C)CCOc1ccccc1-c1ccccc1OCc1cn([C@H](CCCNC(=N)N)C(=O)N[C@H](CCCCN)Cn2cc(CCc3ccccc3)nn2)nn1.Cl.Cl | 4 µg/mL | 8 µg/mL | 2 µg/mL | 16 µg/mL | 16 µg/mL | 16 µg/mL | 16 µg/mL | 32 µg/mL | 16 µg/mL | 4 µg/mL | > 32 µg/mL | 8 µg/mL | –
CC(C)CCOc1ccccc1-c1ccccc1OCc1cn([C@H](CCCNC(=N)N)C(=O)Nc2cccc(F)c2)nn1.Cl | 4 µg/mL | 8 µg/mL | 8 µg/mL | 32 µg/mL | 64 µg/mL | > 32 µg/mL | > 32 µg/mL | > 32 µg/mL | > 32 µg/mL | 4 µg/mL | > 32 µg/mL | 8 µg/mL | –
CN[C@H](CC(C)C)C(=O)N[C@H]1C(=O)N[C@@H](CC(N)=O)C(=O)N[C@H]2C(=O)N[C@H]3C(=O)N[C@H](C(=O)N[C@H](C(=O)O)c4cc(O)cc(O)c4-c4cc3ccc4O)[C@H](O)c3ccc(c(Cl)c3)Oc3cc2cc(c3O[C@@H]2O[C@H](CO)[C@@H](O)[C@H](O)[C@H]2O[C@H]2C[C@](C)(N)[C@H](O)[C@H](C)O2)Oc2ccc(cc2Cl)[C@H]1O [VANCOMYCIN] | 1 µg/mL (≈ 0.69 µM) | 4 µg/mL (≈ 2.76 µM) | 1 µg/mL (≈ 0.69 µM) | 0.5 µg/mL (≈ 0.345 µM) | 0.5 µg/mL (≈ 0.345 µM) | – | – | – | – | 1 µg/mL (≈ 0.69 µM) | – | 1 µg/mL (≈ 0.69 µM) | Activity (Staphylococcus aureus [19]): inactive; Activity (Staphylococcus aureus [20]): inactive
CC(C)CCOc1ccccc1-c1ccccc1OCc1cn([C@H](CCCNC(=N)N)C(=O)NCc2ccccc2)nn1.Cl | 4 µg/mL | 8 µg/mL | 4 µg/mL | 32 µg/mL | 64 µg/mL | > 32 µg/mL | > 32 µg/mL | 32 µg/mL | > 32 µg/mL | 8 µg/mL | 16.8 µg/mL | 8 µg/mL | –
CC(C)CCOc1ccccc1-c1ccccc1OCc1cn([C@H](CCCCN)C(=O)NCCc2ccc(F)cc2)nn1.Cl | 4 µg/mL | 8 µg/mL | 8 µg/mL | 32 µg/mL | 64 µg/mL | > 32 µg/mL | > 32 µg/mL | 16 µg/mL | > 32 µg/mL | 8 µg/mL | 5.5 µg/mL | 8 µg/mL | –
CC(C)CCOc1ccccc1-c1ccccc1OCc1cn(C[C@@H](CCCCN)NC(=O)[C@@H](CCCNC(=N)N)n2cc(C3CCCCC3)nn2)nn1.Cl.Cl | – | – | – | 4 µg/mL | – | – | – | – | – | – | – | – | Activity (Clostridioides difficile [1]): inactive; Activity (Clostridioides difficile [2]): inactive; Activity (Clostridioides difficile [3]): inactive; Activity (Clostridioides difficile [12]): inactive; Activity (Clostridioides difficile [21]): inactive
CC(C)CCOc1ccc2ccccc2c1-c1c(OCc2cn([C@H](CCCNC(=N)N)C(=O)NCc3ccccc3)nn2)ccc2ccccc12.Cl | 4 µg/mL | 2 µg/mL | 8 µg/mL | 16 µg/mL | 16 µg/mL | > 32 µg/mL | > 32 µg/mL | > 32 µg/mL | > 32 µg/mL | 8 µg/mL | 16.5 µg/mL | 8 µg/mL | –
COLISTIN | – | – | – | – | – | – | – | – | – | – | – | – | Activity (Escherichia coli [22]): Active; Activity (Escherichia coli [23]): Active
CC(C)CCOc1ccccc1-c1ccccc1OCc1cn([C@H](CCCCN)C(=O)N[C@H](CCCNC(=N)N)Cn2cc(CCc3ccccc3)nn2)nn1.Cl.Cl | 4 µg/mL | 8 µg/mL | 8 µg/mL | 16 µg/mL | 16 µg/mL | 8 µg/mL | 16 µg/mL | 8 µg/mL | 8 µg/mL | 2 µg/mL | 16.4 µg/mL | – | Activity (Staphylococcus aureus [24]): Active; hemolysis at 2 h, 5 ug/ml [10]: 1.4%; hemolysis at 2 h, 50 ug/ml [11]: 12.6%; Activity (Staphylococcus aureus [13]): Active; Activity (Escherichia coli [14]): Active; Activity (Staphylococcus aureus [15]): >500%; Activity (Escherichia coli [16]): Active
CC(C)CCOc1ccccc1-c1ccccc1OCc1cn(C[C@@H](CCCCN)NC(=O)[C@@H](CCCNC(=N)N)n2cc(CC3CCCCC3)nn2)nn1.Cl.Cl | – | – | – | 1 µg/mL | – | – | – | – | – | – | – | – | Activity (Clostridioides difficile [1]): inactive; Activity (Clostridioides difficile [2]): inactive; Activity (Clostridioides difficile [3]): inactive; Activity (Clostridioides difficile [12]): inactive; Activity (Clostridioides difficile [21]): inactive
